According to patent US6593462B2, “Purified β1,2-xylosyltransferase and uses thereof” (priority 1997, dated 2003):

Tests used:
β1,2-xylosyltransferase [1] = assay: Solubilization of xylosyltransferase from microsomes by detergents; type: biochemical, soybean; conditions: for Xylose Transferred to Acceptor (cpm), High Speed Supernatant / Xylose Transferred to Acceptor (cpm), Particulate Suspension: protein 10 mg/ml
Procedure: In order to purify this glycosyltransferase, it was necessary to solubilize the enzyme from the microsomes. A variety of detergents were tested at different concentrations for their ability to solubilize the xylosyltransferase and maintain its stability. […] The enzymatic activity in the supernatant liquid was then measured in the usual transferase assay.

β1,2-xylosyltransferase [2] = assay: Xylosyltransferase activity assay: transfer of 3H-xylose from UDP-[3H]xylose to oligosaccharide acceptor; type: biochemical, soybean; conditions: for Stimulation of enzyme activity / Effect of cation added to the purified enzyme (in words): 1 mM; for Stimulation of enzyme activity: enzyme dialyzed in the presence of EDTA; for Activity (cpm xylose transferred) with Particulate Enzyme / Activity (cpm xylose transferred) with Purified Enzyme: oligosaccharide as acceptor, gel filtration on Biogel P-4; for Km: purified enzyme, FIG. 8
Procedure: Reaction mixtures for the assay of β1,2-xylosyltransferase contained the following components in a final volume of 25 μl: 100 mM MES buffer, pH 7.0, 10 mM MnCl2, 0.2% Triton X-100, 5 mM ATP, 0.2 mM UDP-[^3H]xylose (15,000 cpm), and 4 nmol of oligosaccharide acceptor (usually GlcNAc2-Man3-GlcNAc2-tyrosinamide; see structure 4 of FIG. 6, or the asialo-agalacto-oligosaccharide from transferrin). The reaction was started by the addition of 5 μl of the enzyme solution, and incubations were usually at 37° C. for 1 hour. The reaction was stopped by the addition of 100 μl of 1% acetic acid, and the reaction mixtures were chromatographed on a column of Biogel P-4 prepared by placing 8 ml of gel into a 10 ml pipette. The columns were equilibrated with 1% acetic acid, and the product was separated from substrates by elution with 1% acetic acid containing 0.2 M NaCl.
When more purified enzyme preparations were used in the assays, the radiolabeled product could be separated from the radioactive substrate by ion-exchange chromatography on an Amberlite column (or a column of Dowex-1-Cl^−) contained in a Pasteur pipette. […] Thus the wash can be counted as a measure of radioactive xylose transferred to oligosaccharide. In these assays, it is important to be certain that the enzyme preparation is free of degradative enzymes that cleave UDP-xylose to free xylose.

β1,2-xylosyltransferase [3] = assay: Specificity of nucleoside diphosphate sugar donor for xylosyltransferase; type: biochemical, soybean; conditions: radioactive sugar nucleotide 20,000 cpm, 200 μM, asialo-agalactotransferrin glycopeptide acceptor, 1 hour at 37°; for cpm incorporated into oligosaccharide, Purified Enzyme: about 20 ng protein
Procedure: The substrate specificity of the xylosyltransferase for the nucleoside diphosphate sugar donor was also examined, using a variety of radiolabeled sugar nucleotides, as presented in Table 4. Each of these substrates was adjusted to have the same specific activity, and they were compared to each other at that activity.
Enzyme (particulate fraction or purified xylosyltransferase (about 20 ng protein) from UDP-hexanolamine-Sepharose) was incubated with radioactive sugar nucleotide (20,000 cpm; 200 μM) and asialo-agalactotransferrin glycopeptide for 1 hour at 37°. The reaction mixture was then separated on a Biogel P-4 column and radioactivity in oligasaccharide was determined.

[4] = test system: β1,2-xylosyltransferase (56 and 59 kDa bands); assay: Photoaffinity labeling of xylosyltransferase with N3-UDP[32P]-xylose; type: binding, soybean; conditions: for Effect of unlabeled nucleoside diphosphate sugar on radiolabel in the 56 and 59 kDa bands: 10 and 100 μM (b69 prints 0.1, 1 and 10 μM for UDP-xylose); for Effect of oligosaccharide on binding of UDP-xylose probe: FIG. 3A lanes 12 and 13
Procedure: In FIG. 3B, effects of various amounts of acceptor oligosaccharides on labeling with UDP-xylose probe are shown.
In order to determine which band was really the xylosyltransferase, the enzyme fraction from UDP-hexanolamine-Sepharose was incubated with azido-UDP[^32P]-xylose, and after 30 sec., the mixture was exposed to UV light to activate the azido group.
Thus, lane 1 is without oligosaccharide acceptor while lanes 2-5 are with 4, 10, 30 and 80 μM oligosaccharide 4 and lanes 6-9 with oligoscacharide 10.

β1,2-xylosyltransferase [5] = assay: Xylosyltransferase activity assay: transfer of 3H-xylose from UDP-[3H]xylose to oligosaccharide acceptor; type: biochemical, soybean; conditions: donor substrate; 5 nmoles of oligosaccharide 4; FIG. 9
fucosyltransferase = assay: Fucose incorporation from GDP-[3H]fucose into oligosaccharide 4 by soybean particulate enzyme; type: biochemical; conditions: oligosaccharide 4 acceptor
Procedure: Based on the substrate specificity for oligosaccharide acceptor, it would appear that xylose is added after the action of GlcNAc transferase I and mannosidase II but before the addition of galactose residues to the terminal GlcNAc units. Most of these types of N-linked oligosaccharides also contain an […] L-fucose on the innermost GlcNAc unit. In order to determine whether addition of xylose affects fucose transfer to the oligosaccharide, or vice versa, assays were prepared that contained oligosaccharide 4 as acceptor, radiolabeled nucleoside diphosphate sugar (i.e., either UDP-[^3H]xylose or GDP-[^3H]fucose) and either unlabeled UDP-xylose or unlabeled GDP-fucose. Thus, when the incubation contained radioactive UDP-xylose, various amounts of unlabeled GDP-fucose were added to determine whether addition of fucose would stimulate or inhibit xylose transfer. Likewise, when labeled GDP-fucose was used, the incubations contained unlabeled UDP-xylose. These incubations were done with the soybean particulate enzyme, so that both fucosyltransferase and xylosyltransferase were present.

C[C@H](CCC(=O)NCCC[N+](C)(C)CCCS(=O)(=O)[O-])[C@H]1CC[C@H]2[C@@H]3[C@H](O)C[C@@H]4C[C@H](O)CC[C@]4(C)[C@H]3C[C@H](O)[C@]12C [CHAPS]
Xylose Transferred to Acceptor (cpm), High Speed Supernatant (β1,2-xylosyltransferase [1]; detergent 1%): 541 cpm | Xylose Transferred to Acceptor (cpm), Particulate Suspension (β1,2-xylosyltransferase [1]; detergent 1%): 2168 cpm

CCCCCCCCCCCCCCCC[n+]1ccccc1.[Cl-] [CPC]
Xylose Transferred to Acceptor (cpm), High Speed Supernatant (β1,2-xylosyltransferase [1]; detergent 1%): 64 cpm | Xylose Transferred to Acceptor (cpm), Particulate Suspension (β1,2-xylosyltransferase [1]; detergent 1%): 1341 cpm

[Ca+2].[Cl-].[Cl-] [CaCl2]
Stimulation of enzyme activity (β1,2-xylosyltransferase [2]): 15%

[Ca+2] [Ca^++]
Effect of cation added to the purified enzyme (in words) (β1,2-xylosyltransferase [2]): no stimulation

[Co+2] [Co^++]
Effect of cation added to the purified enzyme (in words) (β1,2-xylosyltransferase [2]): no stimulation

O=C(O)CN(CCN(CC(=O)O)CC(=O)O)CC(=O)O [EDTA]
Effect of EDTA on purified xylosyltransferase (β1,2-xylosyltransferase [2]; addition of, or dialysis against): not inhibited

[Fe+3] [Fe^+++]
Effect of cation added to the purified enzyme (in words) (β1,2-xylosyltransferase [2]): strongly inhibitory

[Fe+2] [Fe^++]
Effect of cation added to the purified enzyme (in words) (β1,2-xylosyltransferase [2]): no stimulation

C[C@@H]1O[C@H](OP(=O)(O)OP(=O)(O)OC[C@H]2O[C@@H](n3cnc4c(=O)[nH]c(N)nc43)[C@H](O)[C@@H]2O)[C@@H](O)[C@H](O)[C@@H]1O [GDP-fucose]
Effect of unlabeled GDP-fucose on xylose incorporation (β1,2-xylosyltransferase [2]; high concentrations, oligosaccharide 4 acceptor, particulate enzyme): some inhibition of xylose incorporation | cpm incorporated into oligosaccharide, Particulate Enzyme (β1,2-xylosyltransferase [3]): 1033 cpm | cpm incorporated into oligosaccharide, Purified Enzyme (β1,2-xylosyltransferase [3]): 142 cpm

Nc1nc2c(ncn2[C@@H]2O[C@H](COP(=O)(O)OP(=O)(O)O[C@H]3O[C@H](CO)[C@@H](O)[C@H](O)[C@@H]3O)[C@@H](O)[C@H]2O)c(=O)[nH]1 [GDP-mannose]
cpm incorporated into oligosaccharide, Particulate Enzyme (β1,2-xylosyltransferase [3]): 75 cpm | cpm incorporated into oligosaccharide, Purified Enzyme (β1,2-xylosyltransferase [3]): 59 cpm

[Hg+2] [Hg^++]
Effect of cation added to the purified enzyme (in words) (β1,2-xylosyltransferase [2]): strongly inhibitory

CC(=O)N[C@H]1[C@H](O[C@H]2[C@H](O)[C@@H](NC(C)=O)C(O)O[C@@H]2CO)O[C@H](CO)[C@@H](O[C@@H]2O[C@H](CO[C@H]3O[C@H](CO[C@H]4O[C@H](CO)[C@@H](O)[C@H](O)[C@@H]4O[C@H]4O[C@H](CO)[C@@H](O)[C@H](O)[C@@H]4O)[C@@H](O)[C@H](O[C@H]4O[C@H](CO)[C@@H](O)[C@H](O)[C@@H]4O[C@H]4O[C@H](CO)[C@@H](O)[C@H](O)[C@@H]4O)[C@@H]3O)[C@@H](O)[C@H](O[C@H]3O[C@H](CO)[C@@H](O)[C@H](O)[C@@H]3O[C@H]3O[C@H](CO)[C@@H](O)[C@H](O)[C@@H]3O[C@H]3O[C@H](CO)[C@@H](O)[C@H](O)[C@@H]3O)[C@@H]2O)[C@@H]1O (stereo partly shown) [Man9(GlcNAc)2]
Activity (cpm xylose transferred) with Particulate Enzyme (β1,2-xylosyltransferase [2]): 48 cpm | Activity (cpm xylose transferred) with Purified Enzyme (β1,2-xylosyltransferase [2]): 262 cpm

[Cl-].[Cl-].[Mg+2] [MgCl2]
Effect of cation added to the purified enzyme (in words) (β1,2-xylosyltransferase [2]): slight stimulation | Stimulation of enzyme activity (β1,2-xylosyltransferase [2]): 11%

[Cl][Mn][Cl] [MnCl2]
Effect of cation added to the purified enzyme (in words) (β1,2-xylosyltransferase [2]): slight stimulation

CCCCCCCCO[C@@H]1O[C@H](CO)[C@@H](O)[C@H](O)[C@H]1O [Octylglucoside]
Xylose Transferred to Acceptor (cpm), High Speed Supernatant (β1,2-xylosyltransferase [1]; detergent 1%): 210 cpm | Xylose Transferred to Acceptor (cpm), Particulate Suspension (β1,2-xylosyltransferase [1]; detergent 1%): 2395 cpm

[Pb+2] [Pb^++]
Effect of cation added to the purified enzyme (in words) (β1,2-xylosyltransferase [2]): strongly inhibitory

C[C@H](CCC(=O)NCCS(=O)(=O)O)[C@H]1CC[C@H]2[C@@H]3[C@H](O)C[C@@H]4C[C@H](O)CC[C@]4(C)[C@H]3C[C@H](O)[C@]12C [Taurocholoate]
Xylose Transferred to Acceptor (cpm), High Speed Supernatant (β1,2-xylosyltransferase [1]; detergent 1%): 1574 cpm | Xylose Transferred to Acceptor (cpm), Particulate Suspension (β1,2-xylosyltransferase [1]; detergent 1%): 1570 cpm

CC(=O)N[C@H]1[C@@H](OP(=O)(O)OP(=O)(O)OC[C@H]2O[C@@H](n3ccc(=O)[nH]c3=O)[C@H](O)[C@@H]2O)O[C@H](CO)[C@H](O)[C@@H]1O [UDP-GalNAc]
cpm incorporated into oligosaccharide, Particulate Enzyme (β1,2-xylosyltransferase [3]): 72 cpm | cpm incorporated into oligosaccharide, Purified Enzyme (β1,2-xylosyltransferase [3]): 63 cpm

CC(=O)N[C@H]1[C@@H](OP(=O)(O)OP(=O)(O)OC[C@H]2O[C@@H](n3ccc(=O)[nH]c3=O)[C@H](O)[C@@H]2O)O[C@H](CO)[C@@H](O)[C@@H]1O [UDP-GlcNAc]
cpm incorporated into oligosaccharide, Particulate Enzyme (β1,2-xylosyltransferase [3]): 246 cpm | cpm incorporated into oligosaccharide, Purified Enzyme (β1,2-xylosyltransferase [3]): 128 cpm

O=C(O)[C@H]1O[C@H](OP(=O)(O)OP(=O)(O)OC[C@H]2O[C@@H](n3ccc(=O)[nH]c3=O)[C@H](O)[C@@H]2O)[C@H](O)[C@@H](O)[C@@H]1O [UDP-glucuronic acid]
Effect of unlabeled nucleoside diphosphate sugar on radiolabel in the 56 and 59 kDa bands [4]: did not inhibit

O=c1ccn([C@@H]2O[C@H](COP(=O)(O)OP(=O)(O)O[C@H]3OC[C@@H](O)[C@H](O)[C@H]3O)[C@@H](O)[C@H]2O)c(=O)[nH]1 [UDP-xylose]
Effect of unlabeled nucleoside diphosphate sugar on radiolabel in the 56 and 59 kDa bands [4]: greatly diminished | Km (β1,2-xylosyltransferase [5]): ~0.1 µM | Effect of unlabeled UDP-xylose on incorporation of fucose into oligosaccharide (fucosyltransferase): did not affect the incorporation of fucose | cpm incorporated into oligosaccharide, Particulate Enzyme (β1,2-xylosyltransferase [3]): 1479 cpm | cpm incorporated into oligosaccharide, Purified Enzyme (β1,2-xylosyltransferase [3]): 2597 cpm

GlcNAc2Man3(GlcNAc)2-T [Oligosaccharide 4]
Effect of oligosaccharide on binding of UDP-xylose probe [4]: greatly stimulated binding of UDP-xylose | Ability to serve as acceptor of xylose (in words) (β1,2-xylosyltransferase [2]): best acceptors | Activity (cpm xylose transferred) with Particulate Enzyme (β1,2-xylosyltransferase [2]): 3578 cpm | Activity (cpm xylose transferred) with Purified Enzyme (β1,2-xylosyltransferase [2]): 3648 cpm | Km (β1,2-xylosyltransferase [2]): ~75 µM

GlcNAc2Man3GlcNAc(Fuc)GlcNAc-T [Oligosaccharide 10]
Effect of oligosaccharide on binding of UDP-xylose probe [4]: greatly stimulated binding of UDP-xylose | Ability to serve as acceptor of xylose (in words) (β1,2-xylosyltransferase [2]): best acceptors | Activity (cpm xylose transferred) with Particulate Enzyme (β1,2-xylosyltransferase [2]): 3212 cpm | Activity (cpm xylose transferred) with Purified Enzyme (β1,2-xylosyltransferase [2]): 2387 cpm | Km (β1,2-xylosyltransferase [2]): ~150 µM

GlcNAc-Man3-5-isomer [Oligosaccharide 9]
Ability to serve as acceptor of xylose (in words) (β1,2-xylosyltransferase [2]): completely inactive as an acceptor | Activity (cpm xylose transferred) with Purified Enzyme (β1,2-xylosyltransferase [2]): 1194 cpm

GlcNAc-Man3-5′-isomer [Oligosaccharide 8]
Effectiveness as xylose acceptor as compared to oligosaccharide 4 (β1,2-xylosyltransferase [2]): about 50% | Activity (cpm xylose transferred) with Purified Enzyme (β1,2-xylosyltransferase [2]): 69 cpm

Transferrin: transferrin obtained from Sigma Chemical Co.
Activity (cpm xylose transferred) with Purified Enzyme (β1,2-xylosyltransferase [2]): 106 cpm

Triton x-100
Enzymatic activity recovered in the supernatant liquid (β1,2-xylosyltransferase [1]; 1% or 2% detergent in Buffer B): at least 80% | Xylose Transferred to Acceptor (cpm), High Speed Supernatant (β1,2-xylosyltransferase [1]; detergent 0.5%): 1189 cpm | Xylose Transferred to Acceptor (cpm), Particulate Suspension (β1,2-xylosyltransferase [1]; detergent 0.5%): 2481 cpm | Xylose Transferred to Acceptor (cpm), High Speed Supernatant (β1,2-xylosyltransferase [1]; detergent 1%): 2188 cpm | Xylose Transferred to Acceptor (cpm), Particulate Suspension (β1,2-xylosyltransferase [1]; detergent 1%): 2689 cpm | Xylose Transferred to Acceptor (cpm), High Speed Supernatant (β1,2-xylosyltransferase [1]; detergent 2%): 2297 cpm | Xylose Transferred to Acceptor (cpm), Particulate Suspension (β1,2-xylosyltransferase [1]; detergent 2%): 2695 cpm
